Test results taken from patent US20250215029A1 (Recludix Pharma, Inc., priority 2022, published 2025).
Where two headings read alike, the source gives them in different places.

Experiments:
[1] = target: T1, Recombinant STAT3 protein (STAT3 (G127-I722)) (Homo sapiens, UniProt P40763); test: STAT3 Fluorescence Polarization (FP) Assay; format: binding; conditions: probe 5-FAM-GpYLPQTV-NH2 2 nM, 45-minute incubation
T1 construct: Recombinant STAT3 protein (STAT3 (G127-I722))
How it was run: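 Displacement of a fluorescent phosphotyrosine peptide (5-FAM-GpYLPQTV-NH2, 2 nM) from 25 nM recombinant STAT3 G127-I722 was monitored by FP after 45 min at room temperature.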

[2] = target: T2, Recombinant STAT6 protein (STAT6 (W123-T658)) (Homo sapiens, UniProt P42226); test: STAT6 Fluorescence Polarization (FP) Assay; format: binding; conditions: 45-minute incubation
T2 construct: Recombinant STAT6 protein (STAT6 (W123-T658))
T2 sequence (P42226 123-658): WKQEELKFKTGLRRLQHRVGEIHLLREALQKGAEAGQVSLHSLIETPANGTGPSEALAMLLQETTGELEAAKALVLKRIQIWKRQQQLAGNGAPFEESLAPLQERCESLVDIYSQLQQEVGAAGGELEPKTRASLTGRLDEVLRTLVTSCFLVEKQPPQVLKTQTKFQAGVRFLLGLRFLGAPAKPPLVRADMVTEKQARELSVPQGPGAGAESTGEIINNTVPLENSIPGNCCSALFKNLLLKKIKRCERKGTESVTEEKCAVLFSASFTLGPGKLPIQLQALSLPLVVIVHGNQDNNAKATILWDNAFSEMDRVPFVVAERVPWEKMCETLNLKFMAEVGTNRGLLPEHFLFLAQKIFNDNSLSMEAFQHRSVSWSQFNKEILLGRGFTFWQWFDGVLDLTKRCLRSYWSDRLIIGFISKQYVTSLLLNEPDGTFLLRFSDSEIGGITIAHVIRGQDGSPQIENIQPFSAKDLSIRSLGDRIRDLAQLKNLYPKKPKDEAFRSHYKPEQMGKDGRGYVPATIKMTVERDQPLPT
How it was run: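 Competitive FP binding: recombinant STAT6 (W123-T658) at 250 nM, labeled phosphotyrosine peptide at 2 nM, compounds at 1% DMSO, 45 min at RT before reading. IC50 values were obtained from nonlinear regression of mP versus log concentration.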

[3] = STAT3 25 nM, read-out: STAT3 (FP assay IC50)
[4] = STAT6 250 nM, probe 5-FAM-ApYKPFQDLI-NH2 2 nM, read-out: STAT6 (FP assay IC50)
[5] = STAT6 250 nM, probe 5-FAM-Ap[…]-NH2 2 nM, read-out: STAT6 (FP assay IC50)
[6] = STAT3 (G127-I722) 25 nM, read-out: STAT3 (FP assay IC50 class)
[7] = STAT6 (W123-T658) 250 nM, probe 5-FAM-ApYKPFQDLI-NH2 2 nM, read-out: STAT6 (FP assay IC50 class)
[8] = STAT6 (W123-T658) 250 nM, probe 5-FAM-Ap[…]-NH2 2 nM, read-out: STAT6 (FP assay IC50 class)

T1 sequence (P40763 127-722): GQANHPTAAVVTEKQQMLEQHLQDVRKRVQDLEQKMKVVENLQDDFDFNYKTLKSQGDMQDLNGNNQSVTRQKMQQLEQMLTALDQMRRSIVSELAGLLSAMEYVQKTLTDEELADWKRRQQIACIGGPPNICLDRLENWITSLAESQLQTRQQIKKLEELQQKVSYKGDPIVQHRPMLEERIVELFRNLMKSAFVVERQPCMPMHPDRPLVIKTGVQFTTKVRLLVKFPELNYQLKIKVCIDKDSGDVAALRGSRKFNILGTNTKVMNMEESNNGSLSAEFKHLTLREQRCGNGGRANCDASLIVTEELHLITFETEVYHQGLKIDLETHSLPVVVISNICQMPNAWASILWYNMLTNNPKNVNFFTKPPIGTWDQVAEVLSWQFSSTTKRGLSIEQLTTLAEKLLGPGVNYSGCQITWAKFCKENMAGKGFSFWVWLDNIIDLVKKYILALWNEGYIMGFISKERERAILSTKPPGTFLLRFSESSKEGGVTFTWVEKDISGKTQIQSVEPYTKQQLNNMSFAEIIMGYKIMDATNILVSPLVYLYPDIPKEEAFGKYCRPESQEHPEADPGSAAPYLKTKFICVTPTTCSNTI

IC50 [1, 6] | IC50 [2, 8] | SMILES | also measured
1000 to 10000 nM | ≤ 300 nM | CC[C@@H]1CC[C@H](NC(=O)c2cc3cc(C(F)P(=O)(O)O)ccc3s2)C(=O)N2[C@H](CC[C@H]2C(=O)N2C[C@@H](C#N)[C@H](c3ccccc3)C2)C1 (single isomer, unassigned) [Compound 235] | –
1000 to 10000 nM | ≤ 300 nM | CC[C@H]1CC[C@H](NC(=O)c2cc3cc(C(F)P(=O)(O)O)ccc3s2)C(=O)N2[C@H](CC[C@H]2C(=O)N2C[C@@H](C#N)[C@H](c3ccccc3)C2)C1 (single isomer, unassigned) [Compound 237] | –
1000 to 10000 nM | ≤ 300 nM | CC(C)[C@H]1CC[C@H](NC(=O)c2cc3cc(C(F)P(=O)(O)O)ccc3s2)C(=O)N2[C@H](CC[C@H]2C(=O)N2C[C@@H](C#N)[C@H](c3ccccc3)C2)C1 (single isomer, unassigned) [Compound 238] | –
1000 to 10000 nM | ≤ 300 nM | CCC[C@@H]1CC[C@H](NC(=O)c2cc3cc(C(F)P(=O)(O)O)ccc3s2)C(=O)N2[C@H](CC[C@H]2C(=O)N2C[C@@H](C#N)[C@H](c3ccccc3)C2)C1 (single isomer, unassigned) [Compound 239] | –
1000 to 10000 nM | ≤ 300 nM | CCC[C@H]1CC[C@H](NC(=O)c2cc3cc(C(F)P(=O)(O)O)ccc3s2)C(=O)N2[C@H](CC[C@H]2C(=O)N2C[C@@H](C#N)[C@H](c3ccccc3)C2)C1 (single isomer, unassigned) [Compound 240] | –
< 100 nM | 300 to 3000 nM | O=C(N[C@H]1CCC[C@H]2CC[C@@H](C(=O)N3CC(c4cnccc4F)C3)N2C1=O)c1cc2cc([C@@H](F)P(=O)(O)O)ccc2s1 (single isomer, unassigned) [Compound 599] | –
< 100 nM | 300 to 3000 nM | O=C(N[C@H]1CCC[C@H]2CC[C@@H](C(=O)N3CC(c4cnccc4F)C3)N2C1=O)c1cc2cc([C@H](F)P(=O)(O)O)ccc2s1 (single isomer, unassigned) [Compound 600] | –
< 100 nM | 3000 to 30000 nM | CN(C)c1ccncc1C1CN(C(=O)[C@@H]2CC[C@@H]3CCC[C@H](NC(=O)c4cc5cc([C@@H](F)P(=O)(O)O)ccc5s4)C(=O)N32)C1 (single isomer, unassigned) [Compound 631] | –

The next lines start with the compound.

SMILES | IC50 [1, 6] | IC50 [2, 8] | also measured
N#C[C@H]1CN(C(=O)[C@@H]2CC[C@@H]3CCCC[C@H](NC(=O)c4ccc5ccc(C(F)(F)P(=O)(O)O)cc5c4)C(=O)N32)C[C@@H]1c1cc[nH]c(=O)c1 (single isomer, unassigned) [Compound 80, ((7-(((3S,6S,10aS)-3-((3R,4S or 3S,4R)-3-cyano-4-(2-oxo-1,2-dihydropyridin-4-yl)pyrrolidine-1-carbonyl)-5-oxodecahydropyrrolo [1,2-a]azocin-6-yl)carbamoyl)naphthalen-2-yl)difluoromethyl) phosphonic acid] | – | – | IC50 [1, 3]: 100 to 1000 nM; IC50 [2, 4]: ≤ 300 nM
N#C[C@H]1CN(C(=O)[C@@H]2CC[C@@H]3CCCC[C@H](NC(=O)c4cc5cc(CP(=O)(O)O)ccc5s4)C(=O)N32)C[C@@H]1c1ccccc1 (single isomer, unassigned) [Compound 90, ((2-(((3S,6S,10aS)-3-((3R,4S or 3S,4R)-3-cyano-4-phenylpyrrolidine-1-carbonyl)-5-oxodecahydropyrrolo [1,2-a]azocin-6-yl)carbamoyl)benzo[b]thiophen-5-yl)methyl) phosphonic acid] | – | – | IC50 [1, 3]: > 10000 nM; IC50 [2, 4]: 300 to 3000 nM
CC1CCC[C@H](NC(=O)c2cc3cc(C(F)(F)P(=O)(O)O)ccc3s2)C(=O)N2[C@@H]1CC[C@H]2C(=O)N1C[C@H](c2cc[nH]c(=O)c2)[C@@H](C#N)C1 (single isomer, unassigned) [Compound 104, ((2-(((3S,6S,10aR)-3-((3R,4S or 3S,4R)-3-cyano-4-(2-oxo-1,2-dihydropyridin-4-yl)pyrrolidine-1-carbonyl)-10-methyl-5-oxodecahydropyrrolo [1,2-a]azocin-6-yl)carbamoyl)benzo[b]thiophen-5-yl)difluoromethyl) phosphonic acid] | – | – | IC50 [1, 3]: 100 to 1000 nM; IC50 [2, 4]: 300 to 3000 nM
N#C[C@@H]1CN(C(=O)[C@@H]2C[C@@H](O)[C@@H]3CCCCC[C@H](NC(=O)c4ccc5ccc(C(F)(F)P(=O)(O)O)cc5c4)C(=O)N23)C[C@H]1c1cc[nH]c(=O)c1 (single isomer, unassigned) [Compound 106, ((7-(((1R,3S,6S, 11aS)-3-((3S,4R or 3R,4S)-3-cyano-4-(2-oxo-1,2-dihydropyridin-4-yl)pyrrolidine-1-carbonyl)-1-hydroxy-5-oxodecahydro-1H-pyrrolo[1,2-a]azonin-6-yl)carbamoyl)naphthalen-2-yl)difluoromethyl) phosphonic acid] | – | – | IC50 [1, 3]: 1000 to 10000 nM; IC50 [2, 5]: ≤ 300 nM
N#C[C@@H]1CN(C(=O)[C@@H]2CCC[C@@H]3CCC[C@H](NC(=O)c4cc5cc(C(F)(F)P(=O)(O)O)ccc5s4)C(=O)N32)C[C@H]1c1ccccc1 (single isomer, unassigned) [Compound 107, ((2-(((4S,7S,10aS)-4-((3S,4R or 3R,4S)-3-cyano-4-phenylpyrrolidine-1-carbonyl)-6-oxodecahydropyrido [1,2-a]azepin-7-yl)carbamoyl)benzo[b]thiophen-5-yl)difluoromethyl) phosphonic acid] | – | – | IC50 [1, 3]: 100 to 1000 nM; IC50 [2, 4]: ≤ 300 nM
C[C@@H]1C[C@H]2CC[C@@H](C(=O)N3CC(c4cccnc4)C3)N2C(=O)[C@@H](NC(=O)c2cc3cc(C(F)(F)P(=O)(O)O)ccc3s2)C1 (single isomer, unassigned) [Compound 110, (difluoro(2-(((3S,6S,8R,9aR)-8-methyl-5-oxo-3-(3-(pyridin-3-yl)azetidine-1-carbonyl)octahydro-1H-pyrrolo[1,2-a]azepin-6-yl)carbamoyl)benzo[b]thiophen-5-yl)methyl) phosphonic acid or (difluoro(2-(((3S,6S,8S,9aR)-8-methyl-5-oxo-3-(3-(pyridin-3-yl)azetidine-1-carbonyl)octahydro-1H-pyrrolo[1,2-a]azepin-6-yl)carbamoyl)benzo[b]thiophen-5-yl)methyl) phosphonic acid] | – | – | IC50 [1, 3]: < 100 nM; IC50 [2, 5]: 3000 to 30000 nM
CC(C)[C@@H]1CC[C@H](NC(=O)c2cc3cc(C(F)P(=O)(O)O)ccc3s2)C(=O)N2[C@H](CC[C@H]2C(=O)N2C[C@H](c3ccccc3)[C@@H](C#N)C2)C1 (single isomer, unassigned) [Compound 212] | 1000 to 10000 nM | – | IC50 [2, 7]: ≤ 300 nM
N#C[C@@H]1CN(C(=O)[C@@H]2CC[C@@H]3CCCC[C@H](NC(=O)c4cc5cc(C(F)P(=O)(O)O)ccc5s4)C(=O)N32)C[C@H]1c1ccccc1 (single isomer, unassigned) [Compound 224] | 1000 to 10000 nM | ≤ 300 nM | –
N#C[C@@H]1CN(C(=O)[C@@H]2CC[C@@H]3CCCC[C@H](NC(=O)c4cc5cc(C(F)P(=O)(O)O)ccc5s4)C(=O)N32)C[C@H]1c1ccccc1 (single isomer, unassigned) [Compound 225] | 1000 to 10000 nM | – | IC50 [2, 7]: ≤ 300 nM
N#C[C@@H]1CN(C(=O)[C@@H]2CC[C@@H]3CCCC[C@H](NC(=O)c4ccc5ccc(C(F)P(=O)(O)O)cc5c4)C(=O)N32)C[C@H]1c1ccccc1 (single isomer, unassigned) [Compound 226] | 1000 to 10000 nM | ≤ 300 nM | –
Cn1ccc([C@@H]2CN(C(=O)[C@@H]3CC[C@@H]4CCCC[C@H](NC(=O)c5cc6cc(C(F)P(=O)(O)O)ccc6s5)C(=O)N43)C[C@H]2C#N)cc1=O (single isomer, unassigned) [Compound 227] | 100 to 1000 nM | 300 to 3000 nM | –
Cn1ccc([C@@H]2CN(C(=O)[C@@H]3CC[C@@H]4CCCC[C@H](NC(=O)c5cc6cc(C(F)P(=O)(O)O)ccc6s5)C(=O)N43)C[C@H]2C#N)cc1=O (single isomer, unassigned) [Compound 228] | 1000 to 10000 nM | – | IC50 [2, 7]: 300 to 3000 nM
N#C[C@@H]1CN(C(=O)[C@@H]2CC[C@@H]3CCC[C@H](NC(=O)c4cc5cc(C(F)P(=O)(O)O)ccc5s4)C(=O)N32)C[C@H]1c1ccccc1 (single isomer, unassigned) [Compound 232] | 1000 to 10000 nM | 300 to 3000 nM | –
N#C[C@@H]1CN(C(=O)[C@@H]2CC[C@@H]3CCC[C@@H](C4CC4)[C@H](NC(=O)c4cc5cc(C(F)(F)P(=O)(O)O)ccc5s4)C(=O)N32)C[C@H]1c1ccccc1 (single isomer, unassigned) [Compound 234] | 1000 to 10000 nM | ≤ 300 nM | –
